# Target: ROCK2 (Homo sapiens (Human), UniProt O75116)
# Experiment: ROCK2 assay (peptide phosphorylation, LABCHIP 3000 Reader)
# Type: biochemical
# Conditions: 5 μM ATP, 1.5 μM peptide substrate
# Protocol: The effectiveness of compounds of the present invention as ROCK inhibitors can be determined in a 30 μL, assay containing 20 mM HEPES, pH 7.5, 20 mM MgCl2, 0.015% Brij-35, 4 mM DTT, 5 μM ATP and 1.5 μM peptide substrate (FITC-AHA-AKRRRLSSLRA-OH). Compounds were dissolved in DMSO so that the final concentration of DMSO was <2%, and the reaction was initiated with Rho kinase variants. After incubation, the reaction was terminated by the addition of EDTA and the phosphorylated and non-phosphorylated peptides separated using a LABCHIP® 3000 Reader (Caliper Life Sciences). […] Compounds were tested in dose-response format, and the inhibition of kinase activity was calculated at each concentration of compound. The inhibition data were fit using a curve-fitting program to determine the IC50; i.e., the concentration of compound required to inhibit 50% of kinase activity.
# Representative Examples were tested in the ROCK2 assay described above and found having ROCK2 inhibitory activity.
# Chain of ROCK2 (O75116 whole entry, species assumed): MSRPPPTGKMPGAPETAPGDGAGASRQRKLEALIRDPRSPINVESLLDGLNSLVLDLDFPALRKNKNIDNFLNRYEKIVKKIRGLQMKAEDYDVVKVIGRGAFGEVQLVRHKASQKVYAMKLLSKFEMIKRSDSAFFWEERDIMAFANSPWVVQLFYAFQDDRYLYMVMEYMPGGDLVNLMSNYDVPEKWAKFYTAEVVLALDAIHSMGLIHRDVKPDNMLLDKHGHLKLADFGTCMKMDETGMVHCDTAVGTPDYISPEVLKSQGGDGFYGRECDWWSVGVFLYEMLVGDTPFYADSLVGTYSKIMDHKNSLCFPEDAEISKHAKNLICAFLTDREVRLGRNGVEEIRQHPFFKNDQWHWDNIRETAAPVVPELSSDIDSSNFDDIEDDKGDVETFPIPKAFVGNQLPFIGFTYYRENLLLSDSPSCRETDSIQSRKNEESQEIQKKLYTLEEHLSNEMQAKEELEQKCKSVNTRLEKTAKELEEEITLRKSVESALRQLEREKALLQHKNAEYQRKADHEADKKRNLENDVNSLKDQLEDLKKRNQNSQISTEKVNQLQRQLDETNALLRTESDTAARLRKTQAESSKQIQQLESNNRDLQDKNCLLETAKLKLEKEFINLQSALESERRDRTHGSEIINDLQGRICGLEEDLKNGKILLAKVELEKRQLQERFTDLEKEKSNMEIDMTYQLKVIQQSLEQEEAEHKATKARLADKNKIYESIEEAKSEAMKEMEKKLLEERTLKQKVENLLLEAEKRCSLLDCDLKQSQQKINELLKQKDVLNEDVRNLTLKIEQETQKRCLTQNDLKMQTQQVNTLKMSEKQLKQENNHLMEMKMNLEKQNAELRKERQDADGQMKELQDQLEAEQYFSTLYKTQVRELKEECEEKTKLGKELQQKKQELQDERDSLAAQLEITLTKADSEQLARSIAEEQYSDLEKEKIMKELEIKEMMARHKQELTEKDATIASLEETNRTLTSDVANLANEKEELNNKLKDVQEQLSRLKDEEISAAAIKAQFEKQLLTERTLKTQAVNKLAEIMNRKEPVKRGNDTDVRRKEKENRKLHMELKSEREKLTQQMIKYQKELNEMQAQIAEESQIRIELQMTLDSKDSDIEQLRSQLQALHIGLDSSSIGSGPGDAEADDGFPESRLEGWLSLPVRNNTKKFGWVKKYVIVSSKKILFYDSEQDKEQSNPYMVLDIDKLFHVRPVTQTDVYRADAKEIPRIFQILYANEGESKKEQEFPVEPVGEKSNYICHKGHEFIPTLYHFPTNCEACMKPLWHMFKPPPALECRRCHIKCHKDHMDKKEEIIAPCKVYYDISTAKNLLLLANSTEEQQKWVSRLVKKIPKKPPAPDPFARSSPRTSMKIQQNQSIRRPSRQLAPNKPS
row,SMILES,IC50
1,"COc1cccc(Cn2nc(C)n(-c3ccc(-c4cn[nH]c4)cc3OC)c2=O)c1 [Example 64, 4-(2-methoxy-4-(1H-pyrazol-4-yl)phenyl)-1-(3-methoxybenzyl)-3-methyl-1H-1,2,4-triazol-5(4H)-one]",250 to 2000 nM
2,"COc1cc(-n2c(C)nn(Cc3cccc(F)c3)c2=O)ccc1-c1cn[nH]c1 [Example 65, 1-(3-fluorobenzyl)-4-(3-methoxy-4-(1H-pyrazol-4-yl)phenyl)-3-methyl-1H-1,2,4-triazol-5(4H)-one]",250 to 2000 nM
3,"COc1cc(-n2c(C)nn(CCc3ccccc3)c2=O)ccc1-c1cn[nH]c1 [Example 66, 4-(3-methoxy-4-(1H-pyrazol-4-yl)phenyl)-3-methyl-1-phenethyl-1H-1,2,4-triazol-5(4H)-one]",50 to 250 nM
4,"COc1cc(-n2c(C)nn(Cc3cc(F)ccc3F)c2=O)ccc1-c1cn[nH]c1 [Example 68, 1-(2,5-difluorobenzyl)-4-(3-methoxy-4-(1H-pyrazol-4-yl)phenyl)-3-methyl-1H-1,2,4-triazol-5(4H)-one]",250 to 2000 nM
5,"COc1cccc(Cn2nc(C)n(-c3ccc(-c4cn[nH]c4)cc3)c2=O)c1 [Example 69, 4-(4-(1H-pyrazol-4-yl)phenyl)-1-(3-methoxybenzyl)-3-methyl-1H-1,2,4-triazol-5(4H)-one]",250 to 2000 nM
6,"Cc1nn(Cc2cccc(F)c2)c(=O)n1-c1ccc(-c2cn[nH]c2)cc1 [Example 70, 4-(4-(1H-pyrazol-4-yl)phenyl)-1-(3-fluorobenzyl)-3-methyl-1H-1,2,4-triazol-5(4H)-one]",250 to 2000 nM
7,"Cc1nn(Cc2cc(F)ccc2F)c(=O)n1-c1ccc(-c2cn[nH]c2)cc1 [Example 71, 4-(4-(1H-pyrazol-4-yl)phenyl)-1-(2,5-difluorobenzyl)-3-methyl-1H-1,2,4-triazol-5(4H)-one]",250 to 2000 nM
8,"COc1cc(F)cc(Cn2nc(C)n(-c3ccc(-c4cn[nH]c4)cc3)c2=O)c1 [Example 72, 4-(4-(1H-pyrazol-4-yl)phenyl)-1-(3-fluoro-5-methoxybenzyl)-3-methyl-1H-1,2,4-triazol-5(4H)-one]",250 to 2000 nM
9,"COc1cc(-c2cn[nH]c2)ccc1-n1c(C)nn(Cc2cccc(F)c2)c1=O [Example 74, 1-(3-fluorobenzyl)-4-(2-methoxy-4-(1H-pyrazol-4-yl)phenyl)-3-methyl-1H-1,2,4-triazol-5(4H)-one]",250 to 2000 nM
10,"COc1cc(-c2cn[nH]c2)ccc1-n1c(C)nn(C(C)c2ccccc2)c1=O (stereo not shown) [Example 75, 4-(2-methoxy-4-(1H-pyrazol-4-yl)phenyl)-3-methyl-1-(1-phenylethyl)-1H-1,2,4-triazol-5(4H)-one]",250 to 2000 nM
11,"COc1cc(F)cc(Cn2nc(C)n(-c3ccc(-c4cn[nH]c4)cc3OC)c2=O)c1 [Example 76, 1-(3-fluoro-5-methoxybenzyl)-4-(2-methoxy-4-(1H-pyrazol-4-yl)phenyl)-3-methyl-1H-1,2,4-triazol-5(4H)-one]",250 to 2000 nM
12,"COc1cc(-c2cn[nH]c2)ccc1-n1c(C)nn(CCc2ccccc2)c1=O [Example 77, 4-(2-methoxy-4-(1H-pyrazol-4-yl)phenyl)-3-methyl-1-phenethyl-1H-1,2,4-triazol-5(4H)-one]",250 to 2000 nM
13,"COc1cc(-c2cn[nH]c2)ccc1-n1c(C)nn(Cc2cc(F)ccc2F)c1=O [Example 78, 1-(2,5-difluorobenzyl)-4-(2-methoxy-4-(1H-pyrazol-4-yl)phenyl)-3-methyl-1H-1,2,4-triazol-5(4H)-one]",50 to 250 nM
14,"Cc1nn(-c2ccc(-c3cn[nH]c3)cc2)c(=O)n1Cc1cc(F)ccc1F [Example 82, 1-(4-(1H-pyrazol-4-yl)phenyl)-4-(2,5-difluorobenzyl)-3-methyl-1H-1,2,4-triazol-5(4H)-one]",5 to 50 nM
15,"COc1cc(F)cc(Cn2c(C)nn(-c3ccc(-c4cn[nH]c4)cc3)c2=O)c1 [Example 83, 1-(4-(1H-pyrazol-4-yl)phenyl)-4-(3-fluoro-5-methoxybenzyl)-3-methyl-1H-1,2,4-triazol-5(4H)-one]",< 5 nM
16,"COc1cccc(Cn2c(C)nn(-c3ccc(-c4cn[nH]c4)c(OC)c3)c2=O)c1 [Example 89, 1-(3-methoxy-4-(1H-pyrazol-4-yl)phenyl)-4-(3-methoxybenzyl)-3-methyl-1H-1,2,4-triazol-5(4H)-one]",< 5 nM
17,"COc1cc(-n2nc(C)n(Cc3cccc(F)c3)c2=O)ccc1-c1cn[nH]c1 [Example 90, 4-(3-fluorobenzyl)-1-(3-methoxy-4-(1H-pyrazol-4-yl)phenyl)-3-methyl-1H-1,2,4-triazol-5(4H)-one]",< 5 nM
18,"COc1cc(-n2nc(C)n(Cc3cc(F)ccc3F)c2=O)ccc1-c1cn[nH]c1 [Example 91, 4-(2,5-difluorobenzyl)-1-(3-methoxy-4-(1H-pyrazol-4-yl)phenyl)-3-methyl-1H-1,2,4-triazol-5(4H)-one]",5 to 50 nM
19,"COc1cc(F)cc(Cn2c(C)nn(-c3ccc(-c4cn[nH]c4)c(OC)c3)c2=O)c1 [Example 92, 4-(3-fluoro-5-methoxybenzyl)-1-(3-methoxy-4-(1H-pyrazol-4-yl)phenyl)-3-methyl-1H-1,2,4-triazol-5(4H)-one]",< 5 nM
20,"COc1cc(-n2nc(C)n(C(C)c3ccccc3)c2=O)ccc1-c1cn[nH]c1 (stereo not shown) [Example 93, 1-(3-methoxy-4-(1H-pyrazol-4-yl)phenyl)-3-methyl-4-(1-phenylethyl)-1H-1,2,4-triazol-5(4H)-one]",5 to 50 nM
21,"COc1cc(-n2nc(C)n(Cc3ccccc3F)c2=O)ccc1-c1cn[nH]c1 [Example 95, 4-(2-fluorobenzyl)-1-(3-methoxy-4-(1H-pyrazol-4-yl)phenyl)-3-methyl-1H-1,2,4-triazol-5(4H)-one]",5 to 50 nM
22,"Cc1nn(-c2ccc(-c3cn[nH]c3)cc2)c(=O)n1Cc1cc(F)cc(F)c1 [Example 96, 1-(4-(1H-pyrazol-4-yl)phenyl)-4-(3,5-difluorobenzyl)-3-methyl-1H-1,2,4-triazol-5(4H)-one]",5 to 50 nM
23,"COc1cc(-n2nc(C)n(Cc3cccc(C#N)c3)c2=O)ccc1-c1cn[nH]c1 [Example 97, 3-((1-(3-methoxy-4-(1H-pyrazol-4-yl)phenyl)-3-methyl-5-oxo-1H-1,2,4-triazol-4(5H)-yl)methyl)benzonitrile]",50 to 250 nM
24,"COc1cc(-n2nc(C)n(Cc3c(F)cccc3F)c2=O)ccc1-c1cn[nH]c1 [Example 98, 4-(2,6-difluorobenzyl)-1-(3-methoxy-4-(1H-pyrazol-4-yl)phenyl)-3-methyl-1H-1,2,4-triazol-5(4H)-one]",5 to 50 nM
25,"COc1cc(-n2nc(C)n(Cc3cc(F)cc(F)c3)c2=O)ccc1-c1cn[nH]c1 [Example 99, 4-(3,5-difluorobenzyl)-1-(3-methoxy-4-(1H-pyrazol-4-yl)phenyl)-3-methyl-1H-1,2,4-triazol-5(4H)-one]",5 to 50 nM
26,"COc1cc(-n2nc(C)n(Cc3cccc(OC(F)F)c3)c2=O)ccc1-c1cn[nH]c1 [Example 100, 4-(3-(difluoromethoxy)benzyl)-1-(3-methoxy-4-(1H-pyrazol-4-yl)phenyl)-3-methyl-1H-1,2,4-triazol-5(4H)-one]",5 to 50 nM

# More lines, now with the values ahead:
row,IC50,SMILES
1,250 to 2000 nM,"Cc1nn(CCc2ccccc2)c(=O)n1-c1ccc(-c2cn[nH]c2)cc1 [Example 67, 4-(4-(1H-pyrazol-4-yl)phenyl)-3-methyl-1-phenethyl-1H-1,2,4-triazol-5(4H)-one]"
2,250 to 2000 nM,"Cc1nn(C(C)c2ccccc2)c(=O)n1-c1ccc(-c2cn[nH]c2)cc1 (stereo not shown) [Example 73, 4-(4-(1H-pyrazol-4-yl)phenyl)-3-methyl-1-(1-phenylethyl)-1H-1,2,4-triazol-5(4H)-one]"
3,5 to 50 nM,"Cc1nn(-c2ccc(-c3cn[nH]c3)cc2)c(=O)n1Cc1ccccc1 [Example 79, 1-(4-(1H-pyrazol-4-yl)phenyl)-4-benzyl-3-methyl-1H-1,2,4-triazol-5(4H)-one]"
4,< 5 nM,"COc1cccc(Cn2c(C)nn(-c3ccc(-c4cn[nH]c4)cc3)c2=O)c1 [Example 80, 1-(4-(1H-pyrazol-4-yl)phenyl)-4-(3-methoxybenzyl)-3-methyl-1H-1,2,4-triazol-5(4H)-one]"
5,5 to 50 nM,"Cc1nn(-c2ccc(-c3cn[nH]c3)cc2)c(=O)n1Cc1cccc(F)c1 [Example 81, 1-(4-(1H-pyrazol-4-yl)phenyl)-4-(3-fluorobenzyl)-3-methyl-1H-1,2,4-triazol-5(4H)-one]"
6,50 to 250 nM,"Cc1nn(-c2ccc(-c3cn[nH]c3)cc2)c(=O)n1C(C)c1ccccc1 (stereo not shown) [Example 84, 1-(4-(1H-pyrazol-4-yl)phenyl)-3-methyl-4-(1-phenylethyl)-1H-1,2,4-triazol-5(4H)-one]"
7,50 to 250 nM,"Cc1nn(-c2ccc(-c3cn[nH]c3)cc2)c(=O)n1CCc1ccccc1 [Example 85, 1-(4-(1H-pyrazol-4-yl)phenyl)-3-methyl-4-phenethyl-1H-1,2,4-triazol-5(4H)-one]"
8,5 to 50 nM,"Cc1nn(-c2ccc(-c3cn[nH]c3)cc2)c(=O)n1Cc1ccccc1Cl [Example 86, 1-(4-(1H-pyrazol-4-yl)phenyl)-4-(2-chlorobenzyl)-3-methyl-1H-1,2,4-triazol-5(4H)-one]"
9,5 to 50 nM,"Cc1nn(-c2ccc(-c3cn[nH]c3)cc2)c(=O)n1Cc1ccccc1F [Example 87, 2-(4-(1H-pyrazol-4-yl)phenyl)-4-(2-fluorobenzyl)-5-methyl-2,4-dihydro-3H-1,2,4-triazol-3-one]"
10,< 5 nM,"COc1cc(-n2nc(C)n(Cc3ccccc3)c2=O)ccc1-c1cn[nH]c1 [Example 88, 4-benzyl-1-(3-methoxy-4-(1H-pyrazol-4-yl)phenyl)-3-methyl-1H-1,2,4-triazol-5(4H)-one]"
11,5 to 50 nM,"COc1cc(-n2nc(C)n(CCc3ccccc3)c2=O)ccc1-c1cn[nH]c1 [Example 94, 1-(3-methoxy-4-(1H-pyrazol-4-yl)phenyl)-3-methyl-4-phenethyl-1H-1,2,4-triazol-5(4H)-one]"

# From patent US10562887B2, “Triazolones and tetrazolones as inhibitors of ROCK” (BRISTOL-MYERS SQUIBB COMPANY, priority 2016, dated 2020)
